Calls of active or inactive are those of the source. No cut-off for these calls is given here.
Legend:
Salmonella typhimurium [1] = experiment: Mutagenicity against Salmonella typhimurium TA100 assessed as revertants at 24 uM incubated for 90 mins followed by drug washout measured after 2 days relative to positive control; format: toxicity, organism-based; details: salmonella enterica subsp. enterica serovar typhimurium
Salmonella typhimurium [2] = experiment: Mutagenicity against Salmonella typhimurium TA98 assessed as revertants at 1.5 uM incubated for 90 mins followed by drug washout measured after 2 days relative to positive control; format: toxicity, organism-based; details: salmonella enterica subsp. enterica serovar typhimurium, 1.5 h
Heart [3] = experiment: Cardiotoxicity against Sprague-Dawley rat Langendorff perfused heart assessed as cycle length time at 0.1 uM by electrophysiological analysis (reference value: 258.62 8.87 ms); format: toxicity, tissue-based
Plasmodium berghei [4] = experiment: Antimalarial activity against Plasmodium berghei ANKA expressing GFP infected in mouse assessed as reduction in parasitemia at 50 mg/kg, po administered QD for 3 days measured 24 hrs post-final dosing by flow cytometric analysis; format: functional; parameters: scale not given: the % may be the effect or the level left
Heart [5] = experiment: Cardiotoxicity against Sprague-Dawley rat Langendorff perfused heart assessed as atrioventricular conduction time at 0.1 uM by electrophysiological analysis (reference value: 42.67 2.29 ms); format: toxicity, tissue-based
Plasma = experiment: Drug uptake in CD1 albino mouse plasma at 50 mg/kg, po up to 48 hrs; format: ADME, organism-based; parameters: dose 50 mg/kg, route oral; details: in vivo
Heart [6] = experiment: Cardiotoxicity against Sprague-Dawley rat Langendorff perfused heart assessed as QTc time interval at 0.1 uM by electrophysiological analysis (reference value: 145.78 10.53 ms); format: toxicity, tissue-based
Heart [7] = experiment: Cardiotoxicity against Sprague-Dawley rat Langendorff perfused heart assessed as intraventricular conduction time at 30 uM by electrophysiological analysis (reference value: 13.92 0.42 ms); format: toxicity, tissue-based
Heart [8] = experiment: Cardiotoxicity against Sprague-Dawley rat Langendorff perfused heart assessed as QT time interval at 30 uM by electrophysiological analysis (reference value: 73.01 4.52 ms); format: toxicity, tissue-based
Plasmodium berghei [9] = experiment: Antimalarial activity against Plasmodium berghei ANKA expressing GFP infected in mouse assessed as reduction in parasitemia at 30 mg/kg, po administered at 6,24,48 and 72 hrs post-infection measured 24 hrs post-final dosing by flow cytometric analysis; format: functional; parameters: scale not given: the % may be the effect or the level left
Plasmodium berghei [10] = experiment: Antimalarial activity against Plasmodium berghei ANKA expressing GFP infected in mouse assessed as cure from infection at 100 mg/kg, po administered 24 hrs post-infection measured on day 30; format: functional, organism-based; parameters: dose 100 mg/kg
Heart [11] = experiment: Cardiotoxicity against Sprague-Dawley rat Langendorff perfused heart assessed as intraventricular conduction time at 0.1 uM by electrophysiological analysis (reference value: 13.92 0.42 ms); format: toxicity, tissue-based
[12] = Inhibition of beta hematin formation assessed as molar equivalent of the compound required to inhibit 50 % beta-hematin formation after 18 hrs by spectrophotometric microassay relative to hemin; format: functional
Heart [13] = experiment: Cardiotoxicity against Sprague-Dawley rat Langendorff perfused heart assessed as cycle length time at 30 uM by electrophysiological analysis (reference value: 258.62 8.87 ms); format: toxicity, tissue-based
Plasmodium falciparum [14] = experiment: Resistance ratio of IC50 for chloroquine-resistant Plasmodium falciparum K1 to IC50 for chloroquine-sensitive Plasmodium falciparum NF54; format: functional
Heart [15] = experiment: Cardiotoxicity against Sprague-Dawley rat Langendorff perfused heart assessed as intraventricular conduction time at 1 uM by electrophysiological analysis (reference value: 13.92 0.42 ms); format: toxicity, tissue-based
[16] = molecular target: T1, Chloroquine resistance transporter (Plasmodium falciparum) (UniProt Q9N623); experiment: Inhibition of chloroquine-resistant Plasmodium falciparum Dd2 CRT expressed in Xenopus laevis oocyte assessed as inhibition of [3H]chloroquine uptake at 100 uM measured from 1 to 2 hrs
T1 sequence (whole entry): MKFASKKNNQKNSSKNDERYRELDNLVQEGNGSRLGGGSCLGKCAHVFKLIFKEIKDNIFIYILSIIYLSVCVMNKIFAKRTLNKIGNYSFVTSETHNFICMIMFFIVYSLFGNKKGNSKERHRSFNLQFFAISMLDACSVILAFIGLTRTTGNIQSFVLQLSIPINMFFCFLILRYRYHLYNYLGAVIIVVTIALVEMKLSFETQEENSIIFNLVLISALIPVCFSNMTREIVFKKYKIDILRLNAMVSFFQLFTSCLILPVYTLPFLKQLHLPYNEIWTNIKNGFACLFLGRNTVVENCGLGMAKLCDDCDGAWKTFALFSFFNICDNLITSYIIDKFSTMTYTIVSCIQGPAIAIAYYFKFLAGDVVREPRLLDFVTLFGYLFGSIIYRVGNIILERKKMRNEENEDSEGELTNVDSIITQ

Salmonella typhimurium [17] = experiment: Mutagenicity against Salmonella typhimurium TA100 assessed as revertants at 6 uM incubated for 90 mins followed by drug washout measured after 2 days relative to positive control; format: toxicity, organism-based; details: salmonella enterica subsp. enterica serovar typhimurium, 1.5 h
Plasmodium falciparum [18] = experiment: Antiplasmodial activity against chloroquine-sensitive Plasmodium falciparum NF54 infected in human erythrocytes assessed as inhibition of [3H]hypoxanthine incorporation incubated for 48 hrs prior to [3H]hypoxanthine addition measured after 48 hrs by liquid scintillation counting; format: functional, organism-based
[19] = Cytotoxicity against human HepG2 cells after 24 hrs by neutral red dye uptake assay; format: cell-based; details: read-out: TC50
Salmonella typhimurium [20] = experiment: Mutagenicity against Salmonella typhimurium TA98 assessed as revertants at 3 uM incubated for 90 mins followed by drug washout measured after 2 days relative to positive control; format: toxicity, organism-based; details: salmonella enterica subsp. enterica serovar typhimurium, 1.5 h
Salmonella typhimurium [21] = experiment: Mutagenicity against Salmonella typhimurium TA98 assessed as revertants at 48 uM incubated for 90 mins followed by drug washout measured after 2 days relative to positive control; format: toxicity, organism-based; details: salmonella enterica subsp. enterica serovar typhimurium, 1.5 h
Heart [22] = experiment: Cardiotoxicity against Sprague-Dawley rat Langendorff perfused heart assessed as atrioventricular conduction time at 30 uM by electrophysiological analysis (reference value: 42.67 2.29 ms); format: toxicity, tissue-based
Plasmodium berghei [23] = experiment: Antimalarial activity against Plasmodium berghei ANKA expressing GFP infected in mouse assessed as cure from infection at 50 mg/kg, po administered QD for 3 days measured on day 30; format: functional, organism-based; parameters: dose 50 mg/kg
Plasmodium berghei [24] = experiment: Antimalarial activity against Plasmodium berghei ANKA expressing GFP infected in mouse assessed as cure from infection at 30 mg/kg, po administered at 6,24,48 and 72 hrs post-infection measured on day 30; format: functional, organism-based; parameters: dose 30 mg/kg
Salmonella typhimurium [25] = experiment: Mutagenicity against Salmonella typhimurium TA98 assessed as revertants at 24 uM incubated for 90 mins followed by drug washout measured after 2 days relative to positive control; format: toxicity, organism-based; details: salmonella enterica subsp. enterica serovar typhimurium, 1.5 h
Liver [26] = experiment: Drug uptake in CD1 albino mouse liver at 50 mg/kg, po at 6 to 48 hrs; format: ADME, organism-based; parameters: dose 50 mg/kg, route oral; details: in vivo
[27] = Cytotoxicity against mouse NIH3T3 cells after 24 hrs by neutral red dye uptake assay; format: cell-based; details: read-out: TC50
[28] = Apparent volume of distribution in CD1 albino mouse at 50 mg/kg, po; format: ADME, organism-based; parameters: dose 50 mg/kg, route oral; details: in vivo, read-out: Vc/F
Liver [29] = experiment: Drug uptake in CD1 albino mouse liver at 50 mg/kg, po at 2 to 6 hrs; format: ADME, organism-based; parameters: dose 50 mg/kg, route oral; details: in vivo
Heart [30] = experiment: Cardiotoxicity against Sprague-Dawley rat Langendorff perfused heart assessed as atrioventricular conduction time at 1 uM by electrophysiological analysis (reference value: 42.67 2.29 ms); format: toxicity, tissue-based
Plasmodium berghei [31] = experiment: Antimalarial activity against Plasmodium berghei ANKA expressing GFP infected in mouse assessed as reduction in parasitemia at 30 mg/kg, po administered QD for 3 days measured 24 hrs post-final dosing by flow cytometric analysis; format: functional; parameters: scale not given: the % may be the effect or the level left
Heart [32] = experiment: Cardiotoxicity against Sprague-Dawley rat Langendorff perfused heart assessed as heart rate at 1 uM by electrophysiological analysis (reference value: 236.68 7.83 bpm); format: toxicity, tissue-based

Clc1ccc(C(Nc2ccnc3cc(Cl)ccc23)c2ccc(CN3CCNCC3)cc2)cc1 (racemic)
Activity (Salmonella typhimurium [1]): 27% | Activity (Salmonella typhimurium [2]): 2% | Time (Heart [3]): 256.97 ms | Activity (Plasmodium berghei [4]): 99.8% | Time (Heart [5]): 42.53 ms | Drug uptake (Plasma): Active | Time (Heart [6]): 145.15 ms | Time (Heart [7]): 22.67 ms | Time (Heart [8]): 94.33 ms | Activity (Plasmodium berghei [9]): 99.8% | Activity (Plasmodium berghei [10]): inactive | Time (Heart [11]): 14 ms | inhibition [12]: Dose-dependent effect | Time (Heart [13]): 317 ms | Ratio IC50 (Plasmodium falciparum [14]): 1.3 | Time (Heart [15]): 14.18 ms | inhibition [16]: Active | Activity (Salmonella typhimurium [17]): 13% | IC50 (Plasmodium falciparum [18]): 17 nM | CC50 at 24 h [19]: 1800 nM | Activity (Salmonella typhimurium [20]): 4% | Activity (Salmonella typhimurium [21]): 4% | Time (Heart [22]): 75.67 ms | Activity (Plasmodium berghei [23]): Active | Activity (Plasmodium berghei [24]): inactive | Activity (Salmonella typhimurium [25]): 4% | Drug uptake (Liver [26]): Not Active | CC50 at 24 h [27]: 1800 nM | Vd/F [28]: 153 L/kg | Drug uptake (Liver [29]): Active | Time (Heart [30]): 42.38 ms | Activity (Plasmodium berghei [31]): 99.8% | Activity (Heart [32]): 233.54 bpm
